# Literature values as cited in patent US20060009468A1, “Method for treatment of cancer” (priority 2004, published 2006).
# Experiments:
# MIA PaCa-2 cells = details: after 72 hrs of exposure
# PANC-1 cells = details: after 72 hrs of exposure
smiles,measurement,setting,value
"N=C(N)NOCC[C@H](N)C(=O)O [L-canavanine, L-Canavanine]","increase of the percentage of cells in the radiosensitive G2/M phase of the cell cycle, compared to untreated cells",MIA PaCa-2 cells,4 fold
same,"increase of the percentage of cells in the radiosensitive G2/M phase of the cell cycle, compared to untreated cells",PANC-1 cells,6 fold
